Data reported in patent US20200354327A1, “COMPOUND HAVING STAT3 INHIBITORY ACTIVITY AND USE THEREOF” (CYTUS H&B CO., LTD., priority 2017, published 2020).

Tests used:
STAT3 [1] = test: Western blot analysis of the 13 selected compounds; assay type: cell-based; conditions: among the 13 selected compounds
Experimental: (§1) Western blot analysis was performed (Jung J E, et al. FASEB J. 19, 1296-1298 (2005)). The cells were washed two times with PBS and suspended in the lysate (50 mM Tris-HCl, pH 7.4, 350 mM NaCl, 1% Triton X-100, 0.5% Nonidet P-40, 10% glycerol, 0.1% SDS, 1 mM EDTA, 1 mM EGTA, 1 mM Na3VO4, 1 mM PMSF, protease and phosphorylation inhibitor) and the cell membrane and nuclear membrane were crushed to lyse the cells. The insoluble protein fraction was removed by centrifugation, and the supernatant was mixed with SDS electrophoresis buffer and electrophoresis (SDS-PAGE) was performed to detect the protein with the desired antibody and to confirm the protein expression level.

STAT3 [2] = target: T1, STAT3 (Homo sapiens, UniProt P40763); test: STAT3-TA-luciferase assay in HEK293T cells; assay type: cell-based
T1 sequence (P40763 whole entry): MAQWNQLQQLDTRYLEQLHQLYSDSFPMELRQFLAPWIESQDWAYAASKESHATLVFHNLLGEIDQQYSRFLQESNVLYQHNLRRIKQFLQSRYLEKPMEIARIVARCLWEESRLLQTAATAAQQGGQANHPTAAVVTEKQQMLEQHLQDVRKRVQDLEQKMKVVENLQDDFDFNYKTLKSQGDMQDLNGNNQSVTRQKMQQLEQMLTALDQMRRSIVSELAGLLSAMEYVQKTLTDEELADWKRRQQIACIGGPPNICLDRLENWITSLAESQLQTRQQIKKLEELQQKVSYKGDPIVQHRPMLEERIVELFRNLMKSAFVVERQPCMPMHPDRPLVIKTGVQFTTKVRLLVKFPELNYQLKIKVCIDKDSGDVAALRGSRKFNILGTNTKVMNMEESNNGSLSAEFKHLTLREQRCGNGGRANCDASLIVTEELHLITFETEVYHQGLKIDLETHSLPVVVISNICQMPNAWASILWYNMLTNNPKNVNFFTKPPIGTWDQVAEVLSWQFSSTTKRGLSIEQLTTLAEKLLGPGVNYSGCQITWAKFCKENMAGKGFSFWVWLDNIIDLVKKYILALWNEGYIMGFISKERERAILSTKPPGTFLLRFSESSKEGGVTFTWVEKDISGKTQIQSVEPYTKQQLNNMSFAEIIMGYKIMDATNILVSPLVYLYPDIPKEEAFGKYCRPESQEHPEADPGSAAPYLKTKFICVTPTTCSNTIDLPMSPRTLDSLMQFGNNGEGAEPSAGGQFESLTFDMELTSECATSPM
Experimental: Assay on the expression of luciferase was performed as previously described (Jung J E, et al. FASEB J. 19, 1296-1298 (2005)). Plasmid DNA having STAT3-TA-luciferase as a reporter construct was temporarily expressed in HEK293T cells using Lipofectamine 2000, the HEK293T cells were treated with ODZ10117, the level of STAT3 expression was measured using a luminometer, and the inhibitory effect was compared with that of the DMSO-treated group.

U87-MG cells [3] = test: Cell proliferation assay, U87-MG; assay type: cell-based, human; conditions: by time period, versus DMSO
Experimental: Cell proliferation assay was performed as previously described (Won C, et al. Anticancer Res. 30, 481-488 (2010)). In order to analyze the cell proliferation rate, U87-MG and MDA-MB-231 cell lines were dispensed into a 6-well culture dish, then treated with DMSO and ODZ10117 the next day, and stained with crystal violet after 0 h, 24 h, 48 h, and 72 h, and the number of live cells was calculated using a hemocytometer.

caspase-3 and PARP = test: Western blot of caspase-3 and PARP; assay type: cell-based, human
Experimental: as §1

Bcl-2 and Bcl-XL = test: Real-time polymerase chain reaction of anti-apoptotic genes; assay type: cell-based, human
Experimental: (§2) RNA isolation and real-time polymerase chain reaction were performed as described previously (Jung J E, et al. FASEB J. 19, 1296-1298 (2005)). Primer specific for human-derived Bcl-XL, Bcl-2, Twist, and GADPH genes were mixed with QuantiFast SYBR Green PCR master mix, and each gene was amplified using the Applied Biosystems 7300 real-time PCR system to compare the expression level.

U87-MG cells [4] = test: Wound healing assay, U87-MG; assay type: cell-based, human; conditions: 24 hours
Experimental: Wound healing assay was performed as previously described (Jung J E, et al. FASEB J. 19, 1296-1298 (2005)). The respective cells were dispensed into a 12-well plate (U87-MG: 5×10^5 cells/ml; MDA-MB-231: 3×10^5 cells/ml) and cultured until the cells proliferated 90% or more. Cells scraped off from the plate with the tip of the pipette were washed two times with PBS. After 24 hours, the proliferation (invasion) of cells at the part from which the cells were had been removed was observed under a microscope, and images were taken.

Twist = test: Expression of Twist in U87-MG and MDA-MB-231 cells; assay type: cell-based, human; conditions: U87-MG and MDA-MB-231, 24 hours
Experimental: as §2

[5] = system: p-STAT3, Cleaved Caspase-3, Bcl-XL, Ki67 and MMP2; test: Tumor histology and immunostaining of xenograft tumor sections; assay type: in vivo, BALB/c nude mice; conditions: 7th day of drug administration
Experimental: Tumors isolated from mice were fixed with formalin and embedded with paraffin, and sections were cut from each paraffin block. For histological evaluation, the sections were stained with hematoxylin-eosin, phospho-STAT3, cleaved caspase-3, Bcl-XL, Ki67, and pro/active MMP-2, respectively. The paraffin of the sections was removed, moisture was removed using alcohol, and then the sections were heated in 10 mM sodium citrate buffer (pH: 6.0) for 5 minutes with microwaves. Non-specific binding was removed by reacting the sections with a PBS solution containing 2.5% bovine serum albumin and 2% normal goat serum for 1 hour. The sections were reacted with antibodies against phospho-STAT3, cleaved caspase-3, Bcl-XL, Ki67, and pro/active MMP-2 diluted 1:100 overnight at 4° C. As a negative control, the sections were reacted with a dilution solution in a state of not containing primary antibodies. The sections were then washed and reacted with secondary antibodies labeled with appropriate biotin, and the location and expression of the bound antibodies were confirmed using an avidin-biotin-horseradish complex. For histological evaluation, each stained section was observed under a microscope at 100-fold and 400-fold magnifications and analysis was performed using a Sony XC-77 CCD camera and a microcomputer imaging device Model 4 image analysis system.

U87-MG cells [6] = test: Survival of mice injected with U87-MG cells; assay type: in vivo; conditions: versus DMSO
STAT3 [7] = target: T1, STAT3; test: Western blot in STAT3-phosphorylated human malignant glioblastoma; assay type: cell-based; parameters: endogenous in cells; host or cells: L540, HDLM-2, U87-MG, MDA-MB-231, further human glioblastoma and breast cancer lines
Experimental: as §1

STAT3 [8] = target: T1, STAT3; test: Western blot in human malignant breast cancer cell lines; assay type: cell-based; parameters: endogenous in cells; host or cells: L540, HDLM-2, U87-MG, MDA-MB-231, further human glioblastoma and breast cancer lines
Experimental: as §1

STAT3 [9] = target: T1, STAT3; test: Nuclear translocation of STAT3 (fluorescence microscope); assay type: cell-based; parameters: endogenous in cells; host or cells: L540, HDLM-2, U87-MG, MDA-MB-231, further human glioblastoma and breast cancer lines; conditions: compared with the control group

SMILES: Clc1ccc(OCc2noc(C(Cl)(Cl)Cl)n2)c(Cl)c1 [ODZ10117, 3-(2,4-dichloro-phenoxymethyl)-5-trichloromethyl-[1,2,4]oxadiazole]
- STAT3 inhibitory action (Western blot) (STAT3 [1]): judged to be extremely superior
- promoter activity of STAT3 (STAT3 [2]; compared with DMSO-treated group): significantly decreased the promoter activity of STAT3
- transcriptional activity of STAT3 (STAT3 [2]; various concentrations): inhibited the transcriptional activity of STAT3 in a concentration-dependent manner
- cell proliferation (U87-MG cells [3]): effectively inhibited the proliferation of the two cell lines
- amount of fragmented caspase-3 and PARP proteins (caspase-3 and PARP): significantly increased the amount of fragmented caspase-3 and PARP proteins
- expression levels of anti-apoptotic genes Bcl-2 and Bcl-XL (Bcl-2 and Bcl-XL): effectively inhibited the expression of these genes
- cell migration (U87-MG cells [4]): significantly inhibited the migration of these cells
- expression of Twist (Twist): significantly decreased
- activity of caspase-3 in tumor tissues [5]: increased the activity of caspase-3
- expression of Bcl-XL in tumor tissues [5]: significantly decreased the expression
- expression of Ki67 in tumor tissues [5]: significantly decreased the expression of Ki67
- expression of pro/active MMP2 in tumor tissues [5]: significantly decreased the expression
- phosphorylation of STAT3 in tumor tissues ([5]; versus DMSO): phosphorylation of STAT3 significantly decreased
- survival time (U87-MG cells [6]): survival time increased
- phosphorylation of tyrosine 705 of STAT3 (STAT3 [7]): inhibited the phosphorylation of tyrosine 705 of STAT3 in STAT3-phosphorylated human malignant glioblastoma in a concentration-dependent manner
- time to complete inhibition of phosphorylation of STAT3 after treatment (STAT3 [7]): ≤ 2 h
- STAT3 inhibitory efficacy compared with known inhibitors (STAT3 [7]; versus NSC628869 and NSC74859): superior STAT3 inhibitory efficacy to NSC628869 and NSC74859
- STAT3 inhibitory efficacy compared with napabucasin (STAT3 [8]): STAT3 inhibitory efficacy similar to that of napabucasin at high concentrations
- phosphorylation of tyrosine 705 of STAT3 (STAT3 [8]): inhibited the phosphorylation of tyrosine 705 of STAT3 in human malignant breast cancer cell lines in a concentration-dependent manner
- time to complete inhibition of phosphorylation of STAT3 after treatment (STAT3 [8]): ≤ 2 h
- STAT3 inhibitory efficacy compared with known inhibitors (STAT3 [8]; versus NSC628869 and NSC74859): superior STAT3 inhibitory efficacy to NSC628869 and NSC74859
- nuclear translocation of STAT3 (STAT3 [9]): further inhibited nuclear translocation of STAT3
